{"source": "patent US6737383B1", "about": "“Herbicidal oxadiazolidines” (priority 1999, dated 2004)", "key": {"windgrass": {"test_system": "windgrass", "assay": "Test E windgrass", "format": "in vivo, Apera spica-venti", "settings": "Postemergence", "method_in_brief": "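Compound formulated with surfactant in a non-phytotoxic solvent (postemergence: young 1- to 4-leaf plants); held in greenhouse approx. 21–28 days; visual assessment against untreated plants.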"}, "sourgrass": {"test_system": "sourgrass", "assay": "Test D sourgrass", "format": "in vivo, Trichachne insularis", "settings": "Postemergence, 0 to 100 scale"}, "common poppy": {"test_system": "common poppy", "assay": "Test E common poppy", "format": "in vivo, Papaver rhoeas", "settings": "Preemergence"}, "maize hybrid P33G26": {"test_system": "maize hybrid P33G26", "assay": "Test G maize injury with safener-treated seed", "settings": "28 days after application", "method_in_brief": "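Maize hybrid P33G26 seed, treated with dichlormid, fenchlorazole-ethyl or naphthalic anhydride or left untreated, was sown in soil pots, then sprayed pre-emergence with several compound rates at 310 L/ha. Plants grew in a greenhouse (14 h day, about 27/24 °C day/night), with 4–5 replicates. Injury was scored visually against untreated controls 28 days after application.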"}, "Green foxtail [1]": {"test_system": "Green foxtail", "assay": "Test D green foxtail", "format": "in vivo", "settings": "Postemergence, 0 to 100 scale"}, "Green foxtail [2]": {"test_system": "Green foxtail", "assay": "Test D green foxtail", "format": "in vivo", "settings": "Postemergence, 0 to 100 scale, 0 no injury, 100 complete control"}, "[3]": {"settings": "Rate 125 g/ha, 0 no injury, 100 complete control"}}, "data": [{"smiles": "C=CCn1c(=O)on(C(=O)N(c2ccc(F)cc2)C(C)C)c1=O", "note": "[Compound 146]", "values": [{"measurement": "Plant response rating, Windgrass", "setting": "windgrass; Rate 62 g/ha, 0 to 100 scale", "result": 85}, {"measurement": "Windgrass plant response rating", "setting": "windgrass; Rate 250 g/ha, 0 to 100 scale where 0 is no effect and 100 is complete control", "result": 95}, {"measurement": "Sourgrass plant response rating", "setting": "sourgrass; Rate 64 g/ha, 0 no injury, 100 complete control", "result": 50}, {"measurement": "Plant response rating, Sourgrass", "setting": "sourgrass; [3]", "result": 50}, {"measurement": "Sourgrass plant response rating", "setting": "sourgrass; [3]", "result": 30}, {"measurement": "Plant response rating, Sourgrass", "setting": "sourgrass; Rate 250 g/ha", "result": 80}, {"measurement": "Plant response rating, Sourgrass", "setting": "sourgrass; Rate 500 g/ha", "result": 80}, {"measurement": "Plant response rating, Common poppy", "setting": "common poppy; Rate 125 g/ha, 0 to 100 scale (0 no effect, 100 complete control)", "result": 100}, {"measurement": "Common poppy plant response rating (0 to 100 scale)", "setting": "common poppy; Rate 250 g/ha", "result": 100}, {"measurement": "Plant response rating, Common poppy", "setting": "common poppy; Rate 500 g/ha, 0 to 100 scale where 0 is no effect and 100 is complete control", "result": 100}, {"measurement": "Mean plant response rating, maize", "setting": "maize hybrid P33G26; Safener Dichlormid (seed treatment), Rate 140 g ai/ha", "result": 1, "unit": "percent control"}, {"measurement": "Mean plant response rating, maize", "setting": "maize hybrid P33G26; Safener Dichlormid (seed treatment), Rate 280 g ai/ha", "result": 1, "unit": "percent control"}, {"measurement": "Mean plant response rating, maize", "setting": "maize hybrid P33G26; Safener Dichlormid (seed treatment), Rate 560 g ai/ha", "result": 4, "unit": "percent control"}, {"measurement": "Mean plant response rating, maize", "setting": "maize hybrid P33G26; Safener Dichlormid (seed treatment), Rate 1120 g ai/ha", "result": 4, "unit": "percent control"}, {"measurement": "Mean plant response rating, maize", "setting": "maize hybrid P33G26; Safener Fenchlorazole-ethyl (seed treatment), Rate 140 g ai/ha", "result": 3, "unit": "percent control"}, {"measurement": "Mean plant response rating, maize", "setting": "maize hybrid P33G26; Safener Fenchlorazole-ethyl (seed treatment), Rate 280 g ai/ha", "result": 74, "unit": "percent control"}, {"measurement": "Mean plant response rating, maize", "setting": "maize hybrid P33G26; Safener Fenchlorazole-ethyl (seed treatment), Rate 560 g ai/ha", "result": 78, "unit": "percent control"}, {"measurement": "Mean plant response rating, maize", "setting": "maize hybrid P33G26; Safener Fenchlorazole-ethyl (seed treatment), Rate 1120 g ai/ha", "result": 85, "unit": "percent control"}, {"measurement": "Mean plant response rating, maize", "setting": "maize hybrid P33G26; Safener None, Rate 140 g ai/ha", "result": 49, "unit": "percent control"}, {"measurement": "Mean plant response rating, maize", "setting": "maize hybrid P33G26; Safener None, Rate 280 g ai/ha", "result": 73, "unit": "percent control"}, {"measurement": "Mean plant response rating, maize", "setting": "maize hybrid P33G26; Safener None, Rate 560 g ai/ha", "result": 80, "unit": "percent control"}, {"measurement": "Mean plant response rating, maize", "setting": "maize hybrid P33G26; Safener None, Rate 1120 g ai/ha", "result": 85, "unit": "percent control"}, {"measurement": "Mean plant response rating, maize", "setting": "maize hybrid P33G26; Safener naphthalic anhydride (seed treatment), Rate 140 g ai/ha", "result": 0, "unit": "percent control"}, {"measurement": "Mean plant response rating, maize", "setting": "maize hybrid P33G26; Safener naphthalic anhydride (seed treatment), Rate 1120 g ai/ha", "result": 35, "unit": "percent control"}]}, {"smiles": "CC(C)N(C(=O)n1oc(=O)n(C2CC2)c1=O)c1ccc(F)cc1F", "note": "[Compound 299]", "values": [{"measurement": "Plant response rating, Green foxtail", "setting": "Green foxtail [1]; Rate 250 g/ha", "result": 100}, {"measurement": "Plant response rating, Green foxtail", "setting": "Green foxtail [1]; Rate 500 g/ha", "result": 100}, {"measurement": "Green foxtail plant response rating", "setting": "Green foxtail [2]; Rate 64 g/ha", "result": 100}, {"measurement": "Green foxtail plant response rating", "setting": "Green foxtail [2]; Rate 125 g/ha", "result": 100}]}]}
